Test results: US7608636B2, “Medicines for treatment and prevention of neurogenic pain” (Hamilton Pharmaceuticals, Inc., priority 2000, dated 2009)

Assays:
[1] = test system: ddY male mice; test: von Frey test, administration into spinal subarachnoid space, partial sciatic nerve ligation model; type: in vivo, mouse; conditions: for effect on escape reaction threshold (von Frey): control group subjected only to the dissection, administration into spinal subarachnoid space (10 nmol), compared to physiological saline; for effect on noxious response threshold (von Frey): neuropathic pain model (sciatic nerve bound), administration into spinal subarachnoid space, nefiracetam 1 and 10 nmol, morphine 10 nmol, oxiracetam 10 nmol
Protocol: 42 of ddY male mice having a body weight of 16 to 18 g were used. […] The mice were anesthetized with pentobarbital, and skin of right hind leg of each mouse was dissected so that sciatic nerve was observed. The half of sciatic nerve fibers was bound with a suture for 24 mice among 42 mice, and only the dissection was performed for the remaining 18 mice (a control group). After the dissection site was sutured, the animals were left for 7 days (Xun Ye et al, Jpn. J. Pharmacol. 2000, Malmberg A B and Basbaum A I, Pain 1998). […] The group of mice of which sciatic nerves were bound was divided into 4 groups, and the threshold was measured twice. The average of the values was used as a control value. Then, mice of each group were each administered with 5 μl (1 nmol) of nefiracetam, 5 μl (10 nmol) of nefiracetam, 5 μl (10 nmol) of morphine or 5 μl of physiological saline into spinal subarachnoid space. After the administration, the threshold was repeatedly measured for 60 minutes with intervals of 10 minutes. The group of mice that were subjected only to the dissection was divided into three groups, and a control value was measured in the same manner as described above. Then, mice of each group were each administered with 5 μl (10 nmol) of nefiracetam, 5 μl (10 nmol) of morphine or 5 μl of physiological saline into spinal subarachnoid space, and the threshold was measured in the same manner as described above.
In the same manner as in Example 2, 5 μl (10 nmol) of oxiracetam was administered and the threshold was measured.
In the von Frey test, the escape reactions caused by mechanical noxious stimulus, which was given for a time period of 60 minutes with intervals of 10 minutes, were evaluated as a threshold (g).

[2] = test system: ddY male mice; test: von Frey test, oral administration of nefiracetam, partial sciatic nerve ligation model; type: in vivo, mouse; conditions: oral administration 3, 10 or 30 mg/kg
Protocol: 36 of ddY male mice having a body weight of 16 to 18 g were used. In the von Frey test, the mice were placed on a mesh, and hind leg footpads of the mice were stimulated with a von Frey filament (digital type von Frey tester MODEL 1601 (IITC INC., U.S.A.)) every 15 minutes, and the threshold values observed at the beginning of an escape reaction were represented in a unit of gram. The mice were anesthetized with pentobarbital, and skin of right hind leg of each mouse was dissected so that sciatic nerve was observed. The half of sciatic nerve fibers was bound with a suture for 24 animals among the 36 animals, and only the dissection was performed for the remaining 12 animals (a sham group). After the dissection site was sutured, experiments were performed on the 7th day (Xun Ye et al, Jpn. J. Pharmacol. 2000, Malmberg A B and Basbaum A I, Pain 1998). […] The group of mice of which sciatic nerves were bound was divided into 4 groups, and the threshold was measured twice. […] Then, mice of each group were each orally administered with 3 mg/kg, 10 mg/kg or 30 mg/kg of nefiracetam or physiological saline (10 ml/kg), and the threshold was repeatedly measured for 90 minutes with intervals of 15 minutes. The mice of the control group (the sham group) that were subjected only to the dissection were divided into two groups, and a control value was measured in the same manner as described above. […]

[3] = test system: male mouse; conditions: p.o.; cited from earlier work
[4] = test system: ddY male mice; test: Peripheral nociception test (bradykinin-induced nociceptive flexion reaction), partial sciatic nerve ligation model; type: in vivo, mouse
Protocol: 17 of ddY male mice having a body weight of 13 to 15 g were used. The mice were anesthetized with pentobarbital, and skin of right hind leg of each mouse was dissected so that sciatic nerve was observed. The half of sciatic nerve fibers was bound with a suture for 9 mice among 17 mice, and only the dissection was performed for the remaining 8 animals (a control group). After the dissection site was sutured, the animals were left for 7 days (Xun Ye et al, Jpn. J. Pharmacol. 2000, Malmberg A B and Basbaum A I, Pain 1998). […] The group of mice of which sciatic nerves were bound was divided into two groups, and mice of one group were each administered with 5 μl (10 nmol) of nefiracetam and mice of the other group were each administered with 5 μl of physiological saline into spinal subarachnoid space. After the administration, the mice were each subcutaneously administered at a right hind leg footpad with physiological saline at 10 minutes and 15 minutes, 2 μl (0.1 fmol) of bradykinin at 20 minutes and 25 minutes, 2 μl (1 fmol) of bradykinin at 30 minutes and 35 minutes, 2 μl (10 fmol) of bradykinin at 40 minutes and 45 minutes, and 2 μl (100 fmol) of bradykinin at 50 minutes and 55 minutes after the administration. […]
In the mouse peripheral nociception test, nociceptive flexion reactions caused by chemical pain stimulus using bradykinin were evaluated. […]

[5] = test system: ddY male mice; test: Hargreaves test, diabetic neuropathic pain (streptozotocin mice); type: in vivo, mouse; conditions: mice with diabetes mellitus (streptozotocin); oral administration 3, 10 or 30 mg/kg
Protocol: 36 of ddY male mice having a body weight of 28 to 30 g were used. In the Hargreaves test, the mice were placed on a glass plate, and hind leg footpads of the mice were stimulated with radiant heat (combination type analgesia meter MODEL 336 (IITC INC., U.S.A.)) every 10 minutes. And the latent time until the beginning of an escape reaction was measured. The mice with diabetes mellitus were prepared by administering streptozotocin (200 mg/kg) dissolved in 0.1 N citrate buffer (pH 4.5) to caudal arteries, and the experiment was performed on the 7th day. […] 24 animals among the 36 animals were determined as mice with diabetes mellitus according to the method described above, and the remaining 12 mice were administered with 0.1 N citrate buffer at caudal arteries and used as a comparative control group (control group). The mice with diabetes mellitus were divided into 4 groups, and the threshold was measured twice. […] Then, mice of each group were each orally administered with 3 mg/kg, 10 mg/kg or 30 mg/kg of nefiracetam or physiological saline (10 ml/kg), and the latent time was repeatedly measured for 60 minutes with intervals of 10 minutes. The control group was divided into two groups, and a control value was measured as described above. […]

Row | Structure (SMILES) | effect on escape reaction threshold (von Frey) [1] | effect on noxious response threshold (von Frey) [1] | suppressing effect on neuropathic pain by oral administration (von Frey) [2] | Acute toxicity [3] | effect on the reaction caused by bradykinin administered to footpad ([4]; control group subjected only to the dissection, without nervous disturbance, administered into spinal subarachnoid space, compared to physiological saline) | bradykinin sensitive response (analgesic effect) ([4]; neuropathic pain model (sciatic nerve bound), administration into spinal subarachnoid space, bradykinin 0.1 to 100 fmol) | suppression effect on diabetic neuropathic pain (Hargreaves latent time) [5]
1 | CN1CC[C@]23c4c5ccc(O)c4O[C@H]2[C@@H](O)C=C[C@H]3[C@H]1C5 [morphine, reference compound] | did not give significant effect | no significant effect |  |  |  |  | 
2 | Cc1cccc(C)c1NC(=O)CN1CCCC1=O [nefiracetam, N-(2,6-dimethylphenyl)-2-(2-oxo-1-pyrrolidinyl)acetamide] | did not give significant effect | analgesic effect in a dose-dependent manner | suppressing effect on neuropathic pain | 2,005 mg/kg | not significant | completely suppressed | suppression effect
3 | NC(=O)CN1CC(O)CC1=O (stereo not shown) [oxiracetam, 4-hydroxy-2-oxo-1-pyrrolidineacetamide] |  | analgesic effect substantially equivalent to that of nefiracetam |  |  |  |  | 
